Where “and” joins values, the source holds several entries; their conditions need not be identical. Equal values may be shown once.
What was measured:
[1] = tested on: rhesus monkeys with spontaneous chronic kidney disease; assay: Effect on NT-proBNP (ELISA), 8-week administration; type: in vivo, Macaca mulatta (Rhesus Macaque)
Description: In the trial, animals were brought in three stages. […] ELISA kit was used for NT-proBNP test. [table]

[2] = tested on: rhesus monkeys with spontaneous chronic kidney disease (CKD); assay: Effect on UACR (proteinuria), 8-week oral administration; type: in vivo, Macaca mulatta (Rhesus Macaque); conditions: for MALB / UACR: per animal + Mean ± SD; for UACR change rate: 8 weeks vs baseline, negative = decrease; for UACR Benefit assessment: per animal
Protocol: CKD-EPI rating […]-G3b, glomerular filtration rate eGFR: 30 59 ml/min/1.73 m^2; or moderate to severe increase in proteinuria (A2-A3): urine albumin/creatinine ratio (UACR)>15 mg/g-350 mg/g (4-6 hour urine collection), vs. age-matched control group 3±2 mg/g. In the trial, animals were brought in three stages. […] ELISA kit was used for NT-proBNP test. [table]

[3] = 1 mg/kg oral once a day, 4 weeks
[4] = 1 mg/kg oral once a day, 4 weeks, mean
[5] = 1 mg/kg oral once a day, 8 weeks
[6] = 1 mg/kg oral once a day, 8 weeks, mean
[7] = 1 mg/kg oral once a day, Baseline
[8] = 1 mg/kg oral once a day, Baseline, mean
[9] = 2 mg/kg oral once a day, 4 weeks
[10] = 2 mg/kg oral once a day, 4 weeks, mean
[11] = 2 mg/kg oral once a day, 8 weeks
[12] = 2 mg/kg oral once a day, 8 weeks, mean
[13] = 2 mg/kg oral once a day, Baseline
[14] = 2 mg/kg oral once a day, Baseline, mean
[15] = 5 mg/kg oral once a day, 8 weeks
[16] = 5 mg/kg oral once a day, 8 weeks, mean
[17] = 5 mg/kg oral once a day, Baseline
[18] = 5 mg/kg oral once a day, Baseline, mean

`COC(=O)NCCCn1nc([C@@H](C)N(C(=O)[C@H]2CNCCO2)C2CC2)c2ccc(C)nc21.O=C(O)C[C@H](O)C(=O)O` [malate of compound of Formula I] was tested, and the NT-proBNP ([1]; 2 mg/kg (n = 5), Baseline, single animals and Mean ± SD) was 43 pg/mL and 155 pg/mL and 335 pg/mL and 46 pg/mL and 250 pg/mL, the NT-proBNP ([1]; 2 mg/kg (n = 5), Baseline, single animals and Mean ± SD, mean) was 166 ± 127 pg/mL and the NT-proBNP ([1]; 5 mg/kg (n = 6), 8 weeks) was 261 pg/mL and 146 pg/mL and 250 pg/mL and 197 pg/mL and 180 pg/mL. For the same compound, the NT-proBNP ([1]; 5 mg/kg (n = 6), 8 weeks, mean) was 231 ± 73 pg/mL, the NT-proBNP ([1]; 5 mg/kg (n = 6), Baseline, single animals and Mean ± SD) was 312 pg/mL and 88 pg/mL and 211 pg/mL and 432 pg/mL and 177 pg/mL and 162 pg/mL and the NT-proBNP ([1]; 5 mg/kg (n = 6), Baseline, single animals and Mean ± SD, mean) was 230 ± 123 pg/mL. The MALB [2, 3] was 4.6 mg/L and 34.1 mg/L and 1.4 mg/L and 5.1 mg/L and 1.3 mg/L, the UACR [2, 3] was 15.0 mg/g and 28.1 mg/g and 7.2 mg/g and 4.7 mg/g and 8.1 mg/g and the MALB [2, 4] was 9.3 ± 14.0 mg/L. The UACR [2, 4] was 12.6 mg/g, the “UACR change rate” value ([2]; 1 mg/kg oral once a day, per animal + Mean ± SD (2/5 animals in statistics)) was −39.14% and 8.44% and the “UACR change rate” value ([2]; 1 mg/kg oral once a day, per animal + Mean ± SD (2/5 animals in statistics), mean) was −15.35%. The “UACR Benefit assessment” value [2, 5] was “Benefit and No”, the MALB [2, 5] was 5.2 mg/L and 38.4 mg/L and 0.8 mg/L and 7.6 mg/L and 1.1 mg/L and the UACR [2, 5] was 20.0 mg/g and 32.5 mg/g and 3.1 mg/g and 2.6 mg/g and 6.1 mg/g. For the same compound, the MALB [2, 6] was 10.6 ± 15.8 mg/L, the UACR [2, 6] was 12.9 ± 13.0 mg/g and the “UACR Benefit assessment” value ([2]; 1 mg/kg oral once a day, 8 weeks, listed as malate of compound of formula I) was “The benefit was not obvious in one case”. For the same compound, the MALB [2, 7] was 9.5 mg/L and 26.8 mg/L and 0.6 mg/L and 0.9 mg/L (2×), the UACR [2, 7] was 32.8 mg/g and 30.0 mg/g and 2.9 mg/g and 1.6 mg/g and 4.1 mg/g and the MALB [2, 8] was 7.7 ± 11.3 mg/L. For the same compound, the UACR [2, 8] was 14.3 mg/g, the “UACR of W8 decreased by, compared with the baseline” value ([2]; 1 mg/kg qd, one animal) was 39% and the MALB [2, 9] was 1.0 mg/L and 12.5 mg/L and 5.3 mg/L and 103.7 mg/L and 2.4 mg/L. For the same compound, the UACR [2, 9] was 3.1 mg/g and 7.9 mg/g and 12.7 mg/g and 92.9 mg/g and 3.6 mg/g, the MALB [2, 10] was 25.0 ± 44.2 mg/L and the UACR [2, 10] was 24.0 mg/g. For the same compound, the “UACR change rate” value ([2]; 2 mg/kg oral once a day, per animal + Mean ± SD (3/5 animals in statistics, p < 0.01 vs placebo)) was −85.13% and −51.06% and −61.81%, the “UACR change rate” value ([2]; 2 mg/kg oral once a day, per animal + Mean ± SD (3/5 animals in statistics, p < 0.01 vs placebo), mean) was −66.00% and the “UACR Benefit assessment” value [2, 11] was “Benefit”. The MALB [2, 11] was 3.0 mg/L and 0.4 mg/L and 0.6 mg/L and 69.5 mg/L and 3.6 mg/L, the UACR [2, 11] was 5.6 mg/g and 1.2 mg/g and 2.3 mg/g and 59.8 mg/g and 11.2 mg/g and the MALB [2, 12] was 15.4 ± 30.3 mg/L. The UACR [2, 12] was 16.0 ± 24.8 mg/g, the “UACR Benefit assessment” value ([2]; 2 mg/kg oral once a day, 8 weeks, listed as malate of compound of formula I) was “all showed benefits” and the MALB [2, 13] was 1.2 mg/L and 0.6 mg/L and 5.3 mg/L and 145.4 mg/L and 6.8 mg/L. For the same compound, the UACR [2, 13] was 3.5 mg/g and 2.5 mg/g and 15.3 mg/g and 122.1 mg/g and 29.3 mg/g, the MALB [2, 14] was 31.9 ± 63.5 mg/L and the UACR [2, 14] was 34.5 mg/g. The “W8 UACR decreased by on average, compared with the baseline” value ([2]; 2 mg/kg qd, 3/5 animals with moderate to severe proteinuria, p<0.01 vs placebo) was 66.00±17.42%, the “UACR of W8 decreased by, compared with the baseline” value ([2]; 2 mg/kg qd, three animals) was 50%-80% and the UACR change rate ([2]; 5 mg/kg oral once a day, per animal + Mean ± SD (4/6 animals in statistics, p < 0.05 vs placebo)) was 16.75% and −64.10% and −68.62% and −72.14%. For the same compound, the UACR change rate ([2]; 5 mg/kg oral once a day, per animal + Mean ± SD (4/6 animals in statistics, p < 0.05 vs placebo), mean) was −46.87 ± 36.93 %, the “UACR Benefit assessment” value [2, 15] was “all showed benefits and One animal showed no benefit and No and Benefit” and the MALB [2, 15] was 72.4 mg/L and 1.2 mg/L and 3.4 mg/L and 112.3 mg/L and 0.3 mg/L and 21.6 mg/L. The UACR [2, 15] was 138.4 mg/g and 5.7 mg/g and 9.1 mg/g and 87.7 mg/g and 1.8 mg/g and 35.1 mg/g, the MALB [2, 16] was 35.2 ± 46.7 mg/L and the UACR [2, 16] was 46.3 ± 55.4 mg/g. The MALB [2, 17] was 93.2 mg/L and 4.3 mg/L and 46.5 mg/L and 59.3 mg/L and 2.1 mg/L and 26.0 mg/L, the UACR [2, 17] was 118.5 mg/g and 10.5 mg/g and 25.4 mg/g and 279.3 mg/g and 2.4 mg/g and 125.8 mg/g and the MALB [2, 18] was 38.6 ± 35.0 mg/L. For the same compound, the UACR [2, 18] was 93.7 ± 105.9 mg/g, the “UACR of W8 decreased by, compared with the baseline” value ([2]; 5 mg/kg qd, 3 animals) was 60%-70% and the “W8 UACR decreased by on average, compared with the baseline” value ([2]; 5 mg/kg qd, 4/6 animals with moderate-to-severe proteinuria, p<0.05 vs placebo) was 46.87±36.93%. For the same compound, the “effect on UACR and eGFRcreat-cys compared with Valsartan” value ([2]; 2-5 mg/kg qd for 8 weeks) was “equivalent to the Valsartan group” and the “proteinuria (UACR) improvement” value ([2]; 2-5 mg/kg qd for 8 weeks) was “can be significantly improved”.
